Source: patent US20240365781A1, “SYNERGISTICALLY EFFECTIVE HERBICIDE COMPOSITION COMPRISING PELARGONIC ACID AND FLAZASULFURON” (Belchim Crop Protection NV, priority 2017, published 2024)

Key:
Assay type in all cases: in vivo
Setaria pumila = assay: post-emergence test, pot trial (Examples 1-5); details: young plants, 28 d, PT, pelargonic acid 10880 g/ha, 16 L/ha
Excerpt: (§1) The expected activity of a given combination of two or three herbicides can be calculated as follows according to a calculation method by Colby (cf. COLBY, S. R.: “Calculating synergistic and antagonistic responses of herbicide combinations”, • Weeds 15, pages 20-22, 1967): • If X=% damage by herbicide (A) at an application rate of m g/ha, • Y=% damage by herbicide (B) at an application rate of n g/ha, • E=the expected damage by herbicides (A) and (B) at application rates of m and n […] and, • then for a combination:
(§2) Individual compositions comprising pelargonic acid or flazasulfuron are compared with a herbicide composition according to the invention comprising pelargonic acid and flazasulfuron.
(§3) Herbicidal activity was determined by performing a post-emergence test. […] The corresponding mixture was in the form of a spray liquor. Besides, spray liquors of individual compositions comprising pelargonic acid or flazasulfuron were used.
(§4) Tests were performed on test fields (field trials) or in pots (pot trials).

Geranium dissectum = assay: post-emergence test, pot trial (Examples 1-5); details: 28 d, PT, pelargonic acid 10880 g/ha, 16 L/ha
Excerpt: as §1, §2, §3, §4

Poa annua = assay: post-emergence test, pot trial (Examples 1-5); details: 28 d, PT; pelargonic acid 10880 g/ha, flazasulfuron 50 g/ha; 16 L/ha
Excerpt: as §1, §2, §3, §4

Matricaria chamomilla = assay: post-emergence test, pot trial (Examples 1-5); details: bigger plants, 28 d, PT, pelargonic acid 10880 g/ha, 16 L/ha
Excerpt: as §1, §2, §3, §4

Trifolium repens = assay: post-emergence test, pot trial (Examples 1-5); details: 28 d, PT; pelargonic acid 10880 g/ha, flazasulfuron 50 g/ha; 16 L/ha
Excerpt: as §1, §2, §3, §4

Convolvulus arvensis L. = assay: post-emergence test, field trial (Examples 1-5); details: 3 d, FT; pelargonic acid 5440 g/ha, flazasulfuron 50 g/ha; 8 L/ha
Excerpt: as §1, §2, §3, §4

Erodium cicuta = assay: post-emergence test, field trial (Examples 1-5); details: 28 d, FT; pelargonic acid 5440 g/ha, flazasulfuron 50 g/ha; 8 L/ha
Excerpt: as §1, §2, §3, §4

Plantago major = assay: post-emergence test, field trial (Examples 1-5); details: FT
Excerpt: as §1, §2, §3, §4

Festuca ovina = assay: post-emergence test, field trial (Examples 1-5); details: FT
Excerpt: as §1, §2, §3, §4

Anagallis arvensis = assay: post-emergence test, field trial (Examples 1-5); details: 3 d, FT; pelargonic acid 5440 g/ha, flazasulfuron 50 g/ha; 8 L/ha
Excerpt: as §1, §2, §3, §4

Chenopodium album = assay: post-emergence test, field trial (Examples 1-5); details: FT
Excerpt: as §1, §2, §3, §4

Veronica persica = assay: post-emergence test, field trial (Examples 1-5); details: FT, pelargonic acid 5440 g/ha, flazasulfuron 50 g/ha, 8 L/ha
Excerpt: as §1, §2, §3, §4

Echinochloa crusgalli = assay: post-emergence test, field trial (Examples 1-5); details: FT
Excerpt: as §1, §2, §3, §4

Digitaria sang = assay: post-emergence test, field trial (Examples 1-5); details: FT, pelargonic acid 5440 g/ha, flazasulfuron 50 g/ha, 8 L/ha
Excerpt: as §1, §2, §3, §4

Sonchus oleraceus L. = assay: post-emergence test, field trial (Examples 1-5); details: FT, pelargonic acid 5440 g/ha, flazasulfuron 50 g/ha, 8 L/ha
Excerpt: as §1, §2, §3, §4

[1] = 3 d, pelargonic acid 10880 g/ha, flazasulfuron 25 g/ha, 16 L/ha
[2] = 3 d, pelargonic acid 10880 g/ha, flazasulfuron 50 g/ha, 16 L/ha
[3] = 3 d, pelargonic acid 21760 g/ha, flazasulfuron 50 g/ha, 32 L/ha
[4] = 7 d, pelargonic acid 10880 g/ha, flazasulfuron 25 g/ha, 16 L/ha
[5] = 7 d, pelargonic acid 10880 g/ha, flazasulfuron 50 g/ha, 16 L/ha
[6] = 7 d, pelargonic acid 21760 g/ha, flazasulfuron 25 g/ha, 32 L/ha
[7] = 7 d, pelargonic acid 21760 g/ha, flazasulfuron 50 g/ha, 32 L/ha
[8] = 13 d, pelargonic acid 10880 g/ha, flazasulfuron 25 g/ha, 16 L/ha
[9] = 13 d, pelargonic acid 10880 g/ha, flazasulfuron 50 g/ha, 16 L/ha
[10] = 13 d, pelargonic acid 21760 g/ha, flazasulfuron 25 g/ha, 32 L/ha
[11] = 13 d, pelargonic acid 21760 g/ha, flazasulfuron 50 g/ha, 32 L/ha
[12] = 23 d, pelargonic acid 21760 g/ha, flazasulfuron 25 g/ha, 32 L/ha
[13] = 23 d, pelargonic acid 21760 g/ha, flazasulfuron 50 g/ha, 32 L/ha
[14] = 30 d, pelargonic acid 10880 g/ha, flazasulfuron 25 g/ha, 16 L/ha
[15] = 30 d, pelargonic acid 10880 g/ha, flazasulfuron 50 g/ha, 16 L/ha
[16] = 30 d, pelargonic acid 21760 g/ha, flazasulfuron 25 g/ha, 32 L/ha
[17] = 30 d, pelargonic acid 21760 g/ha, flazasulfuron 50 g/ha, 32 L/ha
[18] = 38 d, pelargonic acid 10880 g/ha, flazasulfuron 25 g/ha, 16 L/ha
[19] = 38 d, pelargonic acid 10880 g/ha, flazasulfuron 50 g/ha, 16 L/ha
[20] = 38 d, pelargonic acid 21760 g/ha, flazasulfuron 25 g/ha, 32 L/ha
[21] = 38 d, pelargonic acid 21760 g/ha, flazasulfuron 50 g/ha, 32 L/ha
[22] = 3 d, pelargonic acid 21760 g/ha, flazasulfuron 25 g/ha, 32 L/ha
[23] = 23 d, pelargonic acid 10880 g/ha, flazasulfuron 25 g/ha, 16 L/ha
[24] = 23 d, pelargonic acid 10880 g/ha, flazasulfuron 50 g/ha, 16 L/ha

Compound `COc1cc(OC)nc(NC(=O)NS(=O)(=O)c2ncccc2C(F)(F)F)n1` [Flazasulfuron, 1-(4,6-dimethoxypyrimidin-2-yl)-3-(3-trifluoromethyl-2-pyridylsulfonyl)urea] has a herbicidal effect (Setaria pumila; flazasulfuron 25 g/ha) of 89%, a herbicidal effect (Setaria pumila; flazasulfuron 50 g/ha) of 92% and a herbicidal effect (Geranium dissectum; bigger plants, flazasulfuron 50 g/ha) of 0%. It also gave a herbicidal effect (Geranium dissectum; young plants, flazasulfuron 25 g/ha) of 7%, a herbicidal effect (Geranium dissectum; young plants, flazasulfuron 50 g/ha) of 8% and a herbicidal effect (Poa annua) of 0%. The herbicidal effect (Matricaria chamomilla; flazasulfuron 25 g/ha) was 0%, the herbicidal effect (Matricaria chamomilla; flazasulfuron 50 g/ha) was 2% and the herbicidal effect (Trifolium repens) was 1.2%. For the same compound, the herbicidal effect (Convolvulus arvensis L.) was 0%, the herbicidal effect (Erodium cicuta) was 95% and the herbicidal effect (Plantago major; [1]) was 0%. It also gave a herbicidal effect (Plantago major; [2]) of 10%, a herbicidal effect (Plantago major; [3]) of 10% and a herbicidal effect (Plantago major; [4]) of 25%. It also gave a herbicidal effect (Plantago major; [5]) of 0%, a herbicidal effect (Plantago major; [6]) of 25% and a herbicidal effect (Plantago major; [7]) of 0%. It also gave a herbicidal effect (Plantago major; [8]) of 10%, a herbicidal effect (Plantago major; [9]) of 20% and a herbicidal effect (Plantago major; [10]) of 10%. It also gave a herbicidal effect (Plantago major; [11]) of 20%, a herbicidal effect (Plantago major; [12]) of 10% and a herbicidal effect (Plantago major; [13]) of 0%. It also gave a herbicidal effect (Plantago major; [14]) of 35%, a herbicidal effect (Plantago major; [15]) of 0% and a herbicidal effect (Plantago major; [16]) of 35%. The herbicidal effect (Plantago major; [17]) was 0%, the herbicidal effect (Plantago major; [18]) was 10% and the herbicidal effect (Plantago major; [19]) was 10%. It also gave a herbicidal effect (Plantago major; [20]) of 10%, a herbicidal effect (Plantago major; [21]) of 10% and a herbicidal effect (Festuca ovina; [1]) of 0%. It also gave a herbicidal effect (Festuca ovina; [22]) of 0%, a herbicidal effect (Festuca ovina; [4]) of 30% and a herbicidal effect (Festuca ovina; [5]) of 20%. The herbicidal effect (Festuca ovina; [6]) was 30%, the herbicidal effect (Festuca ovina; [7]) was 20% and the herbicidal effect (Festuca ovina; [8]) was 30%. For the same compound, the herbicidal effect (Festuca ovina; [9]) was 20%, the herbicidal effect (Festuca ovina; [10]) was 30% and the herbicidal effect (Festuca ovina; [11]) was 20%. For the same compound, the herbicidal effect (Festuca ovina; [23]) was 75%, the herbicidal effect (Festuca ovina; [24]) was 0% and the herbicidal effect (Festuca ovina; [12]) was 75%. It also gave a herbicidal effect (Festuca ovina; [13]) of 0%, a herbicidal effect (Festuca ovina; [14]) of 75% and a herbicidal effect (Festuca ovina; [16]) of 75%. The herbicidal effect (Festuca ovina; [18]) was 80%, the herbicidal effect (Festuca ovina; [20]) was 80% and the herbicidal effect (Anagallis arvensis) was 1.3%. For the same compound, the herbicidal effect (Chenopodium album; [1]) was 10%, the herbicidal effect (Chenopodium album; [2]) was 15% and the herbicidal effect (Chenopodium album; [22]) was 10%. The herbicidal effect (Chenopodium album; [3]) was 15%, the herbicidal effect (Chenopodium album; [4]) was 40% and the herbicidal effect (Chenopodium album; [5]) was 0%. The herbicidal effect (Chenopodium album; [6]) was 40%, the herbicidal effect (Chenopodium album; [7]) was 0% and the herbicidal effect (Chenopodium album; [8]) was 15%. For the same compound, the herbicidal effect (Chenopodium album; [9]) was 0%, the herbicidal effect (Chenopodium album; [10]) was 15% and the herbicidal effect (Chenopodium album; [11]) was 0%. For the same compound, the herbicidal effect (Chenopodium album; [23]) was 20%, the herbicidal effect (Chenopodium album; [12]) was 20% and the herbicidal effect (Chenopodium album; [13]) was 0%. For the same compound, the herbicidal effect (Chenopodium album; [14]) was 20%, the herbicidal effect (Chenopodium album; [15]) was 0% and the herbicidal effect (Chenopodium album; [16]) was 20%. It also gave a herbicidal effect (Chenopodium album; [17]) of 0%, a herbicidal effect (Chenopodium album; [18]) of 20% and a herbicidal effect (Chenopodium album; [19]) of 0%. It also gave a herbicidal effect (Chenopodium album; [20]) of 20%, a herbicidal effect (Chenopodium album; [21]) of 0% and a herbicidal effect (Veronica persica; 3 d) of 2.5%. The herbicidal effect (Veronica persica; 7 d) was 7.5%, the herbicidal effect (Veronica persica; 56 d) was 16.3% and the herbicidal effect (Echinochloa crusgalli; 3 d, pelargonic acid 5440 g/ha, flazasulfuron 50 g/ha, 8 L/ha) was 2.5%. It also gave a herbicidal effect (Echinochloa crusgalli; [1]) of 0%, a herbicidal effect (Echinochloa crusgalli; [22]) of 0% and a herbicidal effect (Echinochloa crusgalli; 7 d, pelargonic acid 5440 g/ha, flazasulfuron 50 g/ha, 8 L/ha) of 13.3%. It also gave a herbicidal effect (Echinochloa crusgalli; [4]) of 40%, a herbicidal effect (Echinochloa crusgalli; [5]) of 20% and a herbicidal effect (Echinochloa crusgalli; [7]) of 20%. For the same compound, the herbicidal effect (Echinochloa crusgalli; 12 d, pelargonic acid 5440 g/ha, flazasulfuron 50 g/ha, 8 L/ha) was 37.3%, the herbicidal effect (Echinochloa crusgalli; [8]) was 40% and the herbicidal effect (Echinochloa crusgalli; [9]) was 30%. The herbicidal effect (Echinochloa crusgalli; [10]) was 40%, the herbicidal effect (Echinochloa crusgalli; [11]) was 30% and the herbicidal effect (Echinochloa crusgalli; [23]) was 40%. For the same compound, the herbicidal effect (Echinochloa crusgalli; [24]) was 0%, the herbicidal effect (Echinochloa crusgalli; [12]) was 40% and the herbicidal effect (Echinochloa crusgalli; [13]) was 0%. The herbicidal effect (Echinochloa crusgalli; 26 d, pelargonic acid 5440 g/ha, flazasulfuron 50 g/ha, 8 L/ha) was 99%, the herbicidal effect (Echinochloa crusgalli; [14]) was 90% and the herbicidal effect (Echinochloa crusgalli; [16]) was 90%. For the same compound, the herbicidal effect (Echinochloa crusgalli; [18]) was 90%, the herbicidal effect (Echinochloa crusgalli; [20]) was 90% and the herbicidal effect (Echinochloa crusgalli; 72 d, pelargonic acid 5440 g/ha, flazasulfuron 50 g/ha, 8 L/ha) was 96.3%. The herbicidal effect (Digitaria sang; 3 d) was 2.5%, the herbicidal effect (Digitaria sang; 7 d) was 13.3% and the herbicidal effect (Digitaria sang; 12 d) was 37.3%. For the same compound, the herbicidal effect (Digitaria sang; 72 d) was 3.8%, the herbicidal effect (Sonchus oleraceus L.; 3 d) was 0% and the herbicidal effect (Sonchus oleraceus L.; 7 d) was 0%. For the same compound, the herbicidal effect (Sonchus oleraceus L.; 13 d) was 2.5%, the herbicidal effect (Sonchus oleraceus L.; 28 d) was 12.5% and the herbicidal effect (Sonchus oleraceus L.; 58 d) was 10%.
